Experimental data as given in patent US20230110378A1, “MONOBACTAM COMPOUND AND USE THEREOF” (EVOPOINT BIOSCIENCES CO., LTD., priority 2019, published 2023).
In brackets after ≈: the same amount, converted by molar mass.

Legend:
Assay in all cases: Minimum inhibitory concentration (broth microdilution, CLSI)
Assay type in all cases: cell-based
[1] = tested on: Escherichia coli HDBEC 30016; details: HDBEC30016
Experimental: (§1) 103 bacterial strains used for the minimum inhibitory concentration test were frozen in a −80° C. ULT freezer and thawed 2 days before use. A small amount of frozen microorganism bacteria were scraped using a sterile inoculating loop, streaked onto a suitable solid culture dish for inoculation, and then cultured for about 20 h at 35 t 2° C. in a normal incubator. • Proteus mirabilis HDBPM 40: MA, normal atmospheric environment • The remaining 102 strains of bacteria: TSA, normal atmospheric environment
(§2) 5-10 colonies with similar morphology were picked from the culture dish using a sterile inoculating loop and then re-streaked onto a corresponding solid culture dish. Then the dish was incubated in a normal incubator at 35 t 2° C. for about 20 h.
(§3) 5-10 single microbial colonies were picked from the solid culture dish, resuspended in 500 μL of sterile normal saline (0.9% NaCl), and adjusted to an OD600 of about 0.15 with a spectrophotometer.
(§4) The bacteria were then diluted 300-fold with 1.02×CAMHB to an inoculation concentration of 2×10^5 CFU/mL.
(§5) • There were a total of 3 assay plate patterns, one of which was used for each assay. • 8 rows of the assay plate (rows A-H) were for 8 test compounds, respectively. The highest test concentration of the compounds was 16, 32 or 64 μg/mL, and each compound was diluted 2-fold. • Growth control (GC): a medium containing microbial inoculum (1.02×CAMHB) and dimethylsulfoxide (DMSO) but no compound.
(§6) The test and reference compounds were dissolved in DMSO or H2O to prepare 6.4 mg/mL stock solutions. The stock solutions were diluted to prepare standby solutions with certain concentrations, and the volumes of the standby solutions were determined according to the experimental design. Corresponding volumes of the standby solutions were transferred to the starting wells of a dilution plate (A1-H1), and half the starting-well volume of DMSO to the other wells. Each compound was diluted 2-fold sequentially from column 1 to column 11 (e.g., transferring 30 μL of DMSO to columns 2-12 first, then pipetting 30 μL of the compounds from column 1 to column 2 and mixing them well, then pipetting 30 μL of the compounds from column 2 to column 3 and mixing them well, then pipetting 30 μL of the compounds from column 3 to column 4 and mixing them well, and so on to column 11).
(§7) 1 or 2 μL of the compounds and DMSO were transferred from the compound plate to corresponding wells of the assay plates.
(§8) 98 μL of corresponding bacterial inocula were added to the assay plates.
(§9) After addition, the assay plates were covered with sterile covers. The mixtures in the assay plates were centrifuged in a centrifuge at 800 rpm for 30 s, mixed well on a microplate shaker at 400 rpm for 1 min, and incubated in a normal incubator at 35 t 2° C. for 20-24 h.
(§10) The assay plates were placed on a plate reading device, and the speculum was adjusted to observe and record the growth condition of bacteria in each well. In the mean time, each assay plate was photographed with QCount system.
(§11) The minimum inhibitory concentration of each compound was recorded by reference to guidelines from the Clinical and Laboratory Standards Institute.
(§12) The minimum inhibitory concentrations of the compounds against experimental strains were tested in this study by reference to the medium microdilution method as indicated by the Clinical and Laboratory Standards Institute. Compounds were diluted two-fold in 96-well plates from the highest detection concentration of 16, 32 or 64 μg/mL. The bacterial inocula in the assay plates were thawed from corresponding medium plates and diluted in 1.02×CAMHB, while growth controls (GC wells) were set up in the assay plates. The minimum inhibitory concentration of each compound against different bacteria was observed and recorded after the assay plates were incubated in a normal incubator at 35 t 2° C. for about 20 h. The minimum inhibitory concentration values for the different compounds are listed in the list below.

[2] = tested on: Klebsiella pneumoniae HDBKP 30006; details: HDBKP30006
Experimental: as §1, §2, §3, §4, §5, §6, §7, §8, §9, §10, §11, §12

[3] = tested on: Klebsiella pneumoniae HDBKP 9249; details: HDBKP9249
Experimental: as §1, §2, §3, §4, §5, §6, §7, §8, §9, §10, §11, §12

[4] = tested on: Pseudomonas aeruginosa HDBPA 5679; details: HDBPA5679
Experimental: as §1, §2, §3, §4, §5, §6, §7, §8, §9, §10, §11, §12

[5] = tested on: Klebsiella pneumoniae HDBKP 9153; details: HDBKP9153
Experimental: as §1, §2, §3, §4, §5, §6, §7, §8, §9, §10, §11, §12

[6] = tested on: Enterobacter cloacae HDBECL 30030; details: HDBECL30030
Experimental: as §1, §2, §3, §4, §5, §6, §7, §8, §9, §10, §11, §12

[7] = tested on: Escherichia coli HDBEC 30008; details: HDBEC30008
Experimental: as §1, §2, §3, §4, §5, §6, §7, §8, §9, §10, §11, §12

[8] = tested on: Proteus mirabilis HDBPM 40; details: HDBPM40
Experimental: as §1, §2, §3, §4, §5, §6, §7, §8, §9, §10, §11, §12

[9] = tested on: Escherichia coli HDBEC 30048; details: HDBEC30048
Experimental: as §1, §2, §3, §4, §5, §6, §7, §8, §9, §10, §11, §12

SMILES	MIC [1]	MIC [2]	MIC [3]	MIC [4]	MIC [5]	MIC [6]	MIC [7]	MIC [8]	MIC [9]
CC(C)(O/N=C(\C(=O)N[C@H]1C(=O)N(S(=O)(=O)O)[C@H]1CNC(=O)c1cc([C@@H]2CC[N+](C)(CCNC(=O)c3ccc(O)c(O)c3Cl)C2)no1)c1csc(N)n1)C(=O)O (stereo partly drawn) [Compound I-20]	> 16 µg/mL	> 16 µg/mL	> 16 µg/mL	8 to 16 µg/mL	8 to 16 µg/mL	< 4 µg/mL	< 4 µg/mL	< 4 µg/mL	8 to 16 µg/mL
CC(C)(O/N=C(\C(=O)N[C@H]1C(=O)N(S(=O)(=O)O)[C@H]1CNC(=O)c1cc([C@@H]2CCN(C(=O)c3cc(=O)c(O)cn3O)C2)no1)c1csc(N)n1)C(=O)O [Compound I-21]	> 16 µg/mL	> 16 µg/mL	> 16 µg/mL	< 4 µg/mL	< 4 µg/mL	< 4 µg/mL	< 4 µg/mL	< 4 µg/mL	< 4 µg/mL
Nc1nc(/C(=N/OC2(C(=O)O)CC2)C(=O)N[C@@H]2C(=O)N(S(=O)(=O)O)[C@@H]2CNC(=O)c2cc([C@@H]3CCN(C(=O)c4cc(=O)c(O)cn4O)C3)no2)cs1 [Compound I-22]	4 to 8 µg/mL (≈ 5.22 to 10.4 µM)	> 16 µg/mL	4 to 8 µg/mL (≈ 5.22 to 10.4 µM)	< 4 µg/mL	< 4 µg/mL	< 4 µg/mL	< 4 µg/mL	< 4 µg/mL	< 4 µg/mL
Nc1nc(/C(=N/OC2(C(=O)O)CC2)C(=O)N[C@@H]2C(=O)N(S(=O)(=O)O)[C@@H]2CNC(=O)c2cc([C@@H]3CCN(C(=O)c4ccc(O)c(O)c4Cl)C3)no2)cs1 [Compound I-23]	< 4 µg/mL	8 to 16 µg/mL (≈ 10.2 to 20.4 µM)	< 4 µg/mL	< 4 µg/mL	< 4 µg/mL	< 4 µg/mL	< 4 µg/mL	< 4 µg/mL	< 4 µg/mL
C[N+]1(CCNC(=O)c2ccc(O)c(O)c2Cl)CC[C@@H](c2cc(C(=O)NC[C@@H]3[C@H](NC(=O)/C(=N\OC4(C(=O)O)CC4)c4csc(N)n4)C(=O)N3S(=O)(=O)O)on2)C1 (stereo partly drawn) [Compound I-24]	8 to 16 µg/mL	8 to 16 µg/mL	< 4 µg/mL	< 4 µg/mL	< 4 µg/mL	< 4 µg/mL	< 4 µg/mL	< 4 µg/mL	< 4 µg/mL
Nc1nc(/C(=N/OC2(C(=O)O)CC2)C(=O)N[C@@H]2C(=O)N(S(=O)(=O)O)[C@@H]2CNC(=O)c2cc([C@H]3CCN(C(=O)c4cc(=O)c(O)cn4O)C3)no2)cs1 [Compound I-25]	4 to 8 µg/mL (≈ 5.22 to 10.4 µM)	> 16 µg/mL	4 to 8 µg/mL (≈ 5.22 to 10.4 µM)	< 4 µg/mL	< 4 µg/mL	< 4 µg/mL	< 4 µg/mL	< 4 µg/mL	< 4 µg/mL
CC(C)(O/N=C(\C(=O)N[C@H]1C(=O)N(S(=O)(=O)O)[C@H]1CNC(=O)c1cc([C@@H]2CCN(C(=O)c3cc(=O)c(O)cn3O)C2)no1)c1nc(N)sc1Cl)C(=O)O [Compound I-26]	> 16 µg/mL	> 16 µg/mL	> 16 µg/mL	> 16 µg/mL	> 16 µg/mL	> 16 µg/mL	> 16 µg/mL	4 to 8 µg/mL (≈ 4.99 to 9.97 µM)	> 16 µg/mL
CC(C)(O/N=C(\C(=O)N[C@@H]1C(=O)N(S(=O)(=O)O)[C@@H]1CNC(=O)c1cnc([C@@H]2CC[N+](C)(CCNC(=O)c3ccc(O)c(O)c3Cl)C2)s1)c1csc(N)n1)C(=O)O (stereo partly drawn) [Compound I-34]	< 4 µg/mL	4 to 8 µg/mL	8 to 16 µg/mL	< 4 µg/mL	< 4 µg/mL	< 4 µg/mL	< 4 µg/mL	< 4 µg/mL	< 4 µg/mL
CC(C)(O/N=C(\C(=O)N[C@@H]1C(=O)N(S(=O)(=O)O)[C@@H]1CNC(=O)c1cc([C@@H]2CCN(CCNc3ccc(O)c(O)c3Cl)C2)no1)c1csc(N)n1)C(=O)O [Compound I-36]	4 to 8 µg/mL (≈ 5 to 10 µM)	8 to 16 µg/mL (≈ 10 to 20 µM)	< 4 µg/mL	< 4 µg/mL	< 4 µg/mL	< 4 µg/mL	< 4 µg/mL	< 4 µg/mL	< 4 µg/mL
CC(C)(O/N=C(\C(=O)N[C@@H]1C(=O)N(S(=O)(=O)O)[C@@H]1CNC(=O)c1cnc([C@@H]2CC[N+](C)(C[C@H](N)CNC(=O)c3ccc(O)c(O)c3Cl)C2)s1)c1csc(N)n1)C(=O)O (stereo partly drawn) [Compound I-38]	< 4 µg/mL	8 to 16 µg/mL	8 to 16 µg/mL	< 4 µg/mL	< 4 µg/mL	< 4 µg/mL	< 4 µg/mL	< 4 µg/mL	< 4 µg/mL
CC(C)(O/N=C(\C(=O)N[C@@H]1C(=O)N(S(=O)(=O)O)[C@@H]1CNC(=O)c1cc([C@@H]2CCN(CCNC(=O)c3cc(=O)c(O)c[nH]3)C2)no1)c1csc(N)n1)C(=O)O [Compound I-39]	> 16 µg/mL	8 to 16 µg/mL (≈ 10.1 to 20.1 µM)	8 to 16 µg/mL (≈ 10.1 to 20.1 µM)	< 4 µg/mL	< 4 µg/mL	< 4 µg/mL	< 4 µg/mL	< 4 µg/mL	< 4 µg/mL
CC(C)(O/N=C(\C(=O)N[C@@H]1C(=O)N(S(=O)(=O)O)[C@@H]1CNC(=O)c1cc([C@@H]2CCN(CCNC(=O)c3cc(=O)c(O)cn3O)C2)no1)c1csc(N)n1)C(=O)O [Compound I-40]	< 4 µg/mL	8 to 16 µg/mL (≈ 9.87 to 19.7 µM)	8 to 16 µg/mL (≈ 9.87 to 19.7 µM)	< 4 µg/mL	< 4 µg/mL	< 4 µg/mL	< 4 µg/mL	< 4 µg/mL	< 4 µg/mL
CC(C)(O/N=C(\C(=O)N[C@@H]1C(=O)N(S(=O)(=O)O)[C@@H]1CNC(=O)c1cnc([C@@H]2CCN(CCNC(=O)c3ccc(O)c(O)c3Cl)C2)s1)c1csc(N)n1)C(=O)O [Compound I-41]	< 4 µg/mL	< 4 µg/mL	4 to 8 µg/mL (≈ 4.74 to 9.48 µM)	< 4 µg/mL	< 4 µg/mL	< 4 µg/mL	< 4 µg/mL	< 4 µg/mL	< 4 µg/mL
CC(C)(O/N=C(\C(=O)N[C@@H]1C(=O)N(S(=O)(=O)O)[C@@H]1CNC(=O)c1cnc(C2=CC(CCCNC(=O)c3ccc(O)c(O)c3Cl)N=C2)s1)c1csc(N)n1)C(=O)O (stereo partly drawn) [Compound I-42]	< 4 µg/mL	< 4 µg/mL	8 to 16 µg/mL (≈ 9.36 to 18.7 µM)	< 4 µg/mL	< 4 µg/mL	< 4 µg/mL	< 4 µg/mL	< 4 µg/mL	< 4 µg/mL
Cc1c(C(=O)NCCN2CC[C@@H](c3cc(C(=O)NC[C@@H]4[C@H](NC(=O)/C(=N\OC(C)(C)C(=O)O)c5csc(N)n5)C(=O)N4S(=O)(=O)O)on3)C2)n(O)c(C)c(O)c1=O [Compound I-45]	8 to 16 µg/mL (≈ 9.54 to 19.1 µM)	8 to 16 µg/mL (≈ 9.54 to 19.1 µM)	8 to 16 µg/mL (≈ 9.54 to 19.1 µM)	< 4 µg/mL	< 4 µg/mL	< 4 µg/mL	< 4 µg/mL	< 4 µg/mL	< 4 µg/mL
Cc1c(O)c(=O)cc(C(=O)NCCCn2cc(-c3ncc(C(=O)NC[C@@H]4[C@H](NC(=O)/C(=N\OC(C)(C)C(=O)O)c5csc(N)n5)C(=O)N4S(=O)(=O)O)s3)cn2)n1O [Compound I-46]	< 4 µg/mL	8 to 16 µg/mL (≈ 9.39 to 18.8 µM)	8 to 16 µg/mL (≈ 9.39 to 18.8 µM)	< 4 µg/mL	< 4 µg/mL	< 4 µg/mL	< 4 µg/mL	< 4 µg/mL	< 4 µg/mL
